Values quoted from earlier work as cited in US7958848B2, “Method for artificial breeding of farmed sturgeon” (priority 2009, dated 2011).

Test system: goldfish
Conditions: 1-5 mg/kg body weight in combination with pituitary gland

Compound: O=c1[nH]c2ccccc2n1CCCN1CCC(n2c(=O)[nH]c3cc(Cl)ccc32)CC1 [Domperidone]
- Induction of spawning and gonadal development: induced spawning and gonadal development
